From PubChem BioAssay AID256 (DTP/NCI, 2004)
Values joined by “and” are separate entries in the source; they are usually repeats but may differ in a detail not shown here. Equal values may be shown once. Toxic doses and inconclusive results are not listed.

Tested on: CD2F1 mice, L1210 leukemia ip, survival T/C
Assay: NCI In Vivo Anticancer Drug Screen. Data for tumor model L1210 Leukemia (intraperitoneal) in CD2F1 (CDF1) mice
Conditions: endpoint: mean survival time, higher = longer survival
Method in brief: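 Compound-dosed mice with transplantable tumor versus matched vehicle controls; endpoint ratio T/C reported.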

[1] = dose: 100.0 mg/kg/injection, schedule: Q01DX001 (ip), vehicle: saline
[2] = dose: 200.0 mg/kg/injection, schedule: Q01DX001 (ip), vehicle: saline
[3] = dose: 400.0 mg/kg/injection, schedule: Q01DX001 (ip), vehicle: saline
[4] = dose: 100.0 mg/kg/injection, schedule: Q04DX003 (ip), vehicle: saline with Tween-80
[5] = dose: 200.0 mg/kg/injection, schedule: Q04DX003 (ip), vehicle: saline with Tween-80
[6] = dose: 400.0 mg/kg/injection, schedule: Q04DX003 (ip), vehicle: saline with Tween-80
[7] = dose: 25.0 mg/kg/injection, schedule: Q04DX003 (ip), vehicle: saline with Tween-80
[8] = dose: 50.0 mg/kg/injection, schedule: Q04DX003 (ip), vehicle: saline with Tween-80
[9] = dose: 50.0 mg/kg/injection, schedule: Q01DX009 (ip), vehicle: saline with Tween-80
[10] = dose: 100.0 mg/kg/injection, schedule: Q04DX003 (ip), vehicle: saline
[11] = dose: 200.0 mg/kg/injection, schedule: Q04DX003 (ip), vehicle: saline
[12] = dose: 400.0 mg/kg/injection, schedule: Q04DX003 (ip), vehicle: saline
[13] = dose: 100.0 mg/kg/injection, schedule: Q01DX009 (ip), vehicle: saline with Tween-80

CNC1=C(C)C(=O)C2=C(C1=O)C(COC(N)=O)C1(O)C3C(CN21)N3C (centres undefined)
T/C (dose: 1.5 mg/kg/injection, schedule: Q01DX001 (ip), vehicle: water): 98 % of control | T/C (dose: 3.0 mg/kg/injection, schedule: Q01DX001 (ip), vehicle: water): 100 % of control | T/C (dose: 6.0 mg/kg/injection, schedule: Q01DX001 (ip), vehicle: water): 100 % of control | T/C (dose: 12.0 mg/kg/injection, schedule: Q01DX001 (ip), vehicle: water): 100 % of control | T/C (dose: 24.0 mg/kg/injection, schedule: Q01DX001 (ip), vehicle: water): 98 % of control | T/C (dose: 48.0 mg/kg/injection, schedule: Q01DX001 (ip), vehicle: water): 115 % of control | T/C (dose: 96.0 mg/kg/injection, schedule: Q01DX001 (ip), vehicle: water): 108 % of control

COc1ccc(CCNC(=O)Cc2cc(OC)c(OC)cc2[N+](=O)[O-])cc1OC
T/C [1]: 94 % of control | T/C [2]: 97 % of control | T/C [3]: 94 % of control

CC(C)N1CCSC1=S
T/C (dose: 25.0 mg/kg/injection, schedule: Q01DX009 (ip), vehicle: saline sonified): 101 % of control | T/C (dose: 50.0 mg/kg/injection, schedule: Q01DX009 (ip), vehicle: saline sonified): 98 % of control | T/C (dose: 100.0 mg/kg/injection, schedule: Q01DX009 (ip), vehicle: saline sonified): 106 % of control | T/C [4]: 100 % of control | T/C (dose: 200.0 mg/kg/injection, schedule: Q01DX009 (ip), vehicle: saline sonified): 88 % of control | T/C [5]: 99 % of control | T/C [6]: 97 % of control

COc1cc(/C=C2\NC(=O)NC2=O)ccc1O
T/C (dose: 100.0 mg/kg/injection, schedule: Q01DX001 (ip), vehicle: saline with Tween-80): 94 % of control | T/C (dose: 200.0 mg/kg/injection, schedule: Q01DX001 (ip), vehicle: saline with Tween-80): 88 % of control | T/C (dose: 400.0 mg/kg/injection, schedule: Q01DX001 (ip), vehicle: saline with Tween-80): 90 % of control

CNC/C(C)=C/Br
T/C (dose: 50.0 mg/kg/injection, schedule: Q01DX009 (ip), vehicle: acetone): 101 % of control | T/C (dose: 100.0 mg/kg/injection, schedule: Q04DX003 (ip), vehicle: acetone): 101 % of control | T/C (dose: 200.0 mg/kg/injection, schedule: Q04DX003 (ip), vehicle: acetone): 97 % of control

CCCCCCNC(=O)Nc1ccc(Cl)c(Cl)c1
T/C [5]: 92 % of control | T/C [6]: 93 % of control

CC(=O)n1c(COS(C)(=O)=O)nc2ccccc21
T/C (dose: 25.0 mg/kg/injection, schedule: Q01DX001 (ip), vehicle: carboxymethylcellulose (CMC)): 105 % of control | T/C (dose: 50.0 mg/kg/injection, schedule: Q01DX001 (ip), vehicle: carboxymethylcellulose (CMC)): 103 % of control

O=C1C(Sc2ccc3ccccc3c2)=C(Sc2ccc3ccccc3c2)C(=O)c2ccccc21
T/C [7]: 94 % of control | T/C [8]: 94 % of control

O=C(Nc1cccc2ccccc12)OCCCBr
T/C (dose: 3.13 mg/kg/injection, schedule: Q01DX009 (ip), vehicle: saline with Tween-80): 97 % of control | T/C (dose: 6.25 mg/kg/injection, schedule: Q01DX009 (ip), vehicle: saline with Tween-80): 103 % of control | T/C (dose: 12.5 mg/kg/injection, schedule: Q01DX009 (ip), vehicle: saline with Tween-80): 94 % of control and 101 % of control | T/C [9]: 86 % of control

CO[C@@]12[C@H](COC(N)=O)C3=C(C(=O)C(C)=C(NCCO)C3=O)N1C[C@@H]1N[C@@H]12
T/C (dose: 10.2 mg/kg/injection, schedule: Q01DX001 (ip), vehicle: saline): 96 % of control | T/C (dose: 15.5 mg/kg/injection, schedule: Q01DX001 (ip), vehicle: saline): 96 % of control | T/C (dose: 23.2 mg/kg/injection, schedule: Q01DX001 (ip), vehicle: saline): 112 % of control

Nc1n[nH]c(=O)[nH]1
T/C (dose: 31.3 mg/kg/injection, schedule: Q03HX024 (ip), vehicle: saline): 106 % of control | T/C (dose: 62.5 mg/kg/injection, schedule: Q03HX024 (ip), vehicle: saline): 106 % of control | T/C (dose: 125.0 mg/kg/injection, schedule: Q03HX024 (ip), vehicle: saline): 109 % of control | T/C (dose: 250.0 mg/kg/injection, schedule: Q03HX024 (ip), vehicle: saline): 161 % of control

Nc1nc(=O)c2[nH]cnc2n1O
T/C (dose: 12.5 mg/kg/injection, schedule: Q04DX003 (ip), vehicle: acetone): 97 % of control | T/C (dose: 16.5 mg/kg/injection, schedule: Q01DX009 (ip), vehicle: saline): 102 % of control | T/C (dose: 25.0 mg/kg/injection, schedule: Q01DX009 (ip), vehicle: saline): 102 % of control | T/C (dose: 25.0 mg/kg/injection, schedule: Q04DX003 (ip), vehicle: acetone): 94 % of control | T/C (dose: 50.0 mg/kg/injection, schedule: Q04DX003 (ip), vehicle: acetone): 97 % of control | T/C (dose: 55.0 mg/kg/injection, schedule: Q01DX009 (ip), vehicle: saline): 118 % of control

CN(C)CCCNCc1c[nH]c(=O)[nH]c1=O
T/C (dose: 100.0 mg/kg/injection, schedule: Q01DX009 (ip), vehicle: saline): 90 % of control | T/C [10]: 102 % of control | T/C (dose: 200.0 mg/kg/injection, schedule: Q01DX009 (ip), vehicle: saline): 102 % of control | T/C [11]: 100 % of control | T/C (dose: 400.0 mg/kg/injection, schedule: Q01DX009 (ip), vehicle: saline): 104 % of control | T/C [12]: 100 % of control

C=CS(=O)(=O)c1ccccc1
T/C (dose: 18.0 mg/kg/injection, schedule: Q01DX009 (ip), vehicle: saline with Tween-80): 96 % of control | T/C (dose: 36.0 mg/kg/injection, schedule: Q01DX009 (ip), vehicle: saline with Tween-80): 93 % of control | T/C (dose: 72.0 mg/kg/injection, schedule: Q01DX009 (ip), vehicle: saline with Tween-80): 112 % of control

O=C(O)c1cc2ccccc2oc1=O
T/C (dose: 2.5 mg/kg/injection, schedule: Q01DX009 (ip), vehicle: Klucel (hydroxypropylcellulose) (HPC)): 103 % of control | T/C (dose: 5.0 mg/kg/injection, schedule: Q01DX009 (ip), vehicle: Klucel (hydroxypropylcellulose) (HPC)): 108 % of control | T/C (dose: 10.0 mg/kg/injection, schedule: Q01DX009 (ip), vehicle: Klucel (hydroxypropylcellulose) (HPC)): 108 % of control | T/C [7]: 104 % of control | T/C [8]: 112 % of control

Nc1nc(N)c2c(n1)NCN(OCc1c(Cl)cccc1Cl)C2
T/C (dose: 0.75 mg/kg/injection, schedule: Q01DX009 (ip), vehicle: water): 96 % of control | T/C (dose: 1.5 mg/kg/injection, schedule: Q01DX009 (ip), vehicle: water): 100 % of control | T/C (dose: 3.0 mg/kg/injection, schedule: Q01DX009 (ip), vehicle: water): 102 % of control | T/C (dose: 6.0 mg/kg/injection, schedule: Q01DX009 (ip), vehicle: water): 102 % of control | T/C (dose: 12.0 mg/kg/injection, schedule: Q01DX009 (ip), vehicle: water): 104 % of control | T/C (dose: 24.0 mg/kg/injection, schedule: Q01DX009 (ip), vehicle: water): 100 % of control

CCn1ncc2ccc(N(CO)CO)cc21
T/C [10]: 103 % of control | T/C [11]: 106 % of control | T/C [12]: 100 % of control

CCN(CC)CCCC(C)(NCc1ccccc1)[P+](=O)O (centres undefined)
T/C [13]: 90 % of control | T/C [10]: 96 % of control | T/C (dose: 200.0 mg/kg/injection, schedule: Q01DX009 (ip), vehicle: saline with Tween-80): 86 % of control | T/C [11]: 91 % of control | T/C (dose: 400.0 mg/kg/injection, schedule: Q01DX009 (ip), vehicle: saline with Tween-80): 94 % of control | T/C [12]: 94 % of control

CCOc1nc(-c2ccccc2)nc(N)c1Cl
T/C (dose: 100.0 mg/kg/injection, schedule: Q04DX002 (ip), vehicle: saline with Tween-80): 98 % of control | T/C (dose: 200.0 mg/kg/injection, schedule: Q04DX002 (ip), vehicle: saline with Tween-80): 98 % of control | T/C (dose: 400.0 mg/kg/injection, schedule: Q04DX002 (ip), vehicle: saline with Tween-80): 98 % of control

Clc1cc(Cl)c2nc[nH]c2c1
T/C [9]: 91 % of control | T/C [13]: 95 % of control

Nc1ccc(CCC(=O)Nc2ccc(S(=O)(=O)F)cc2)cc1
T/C [1]: 97 % of control | T/C [2]: 102 % of control | T/C [3]: 97 % of control

N#Cc1ccc(CCl)cc1
T/C (dose: 50.0 mg/kg/injection, schedule: Q01DX009 (ip), vehicle: Klucel (hydroxypropylcellulose) (HPC)): 98 % of control | T/C (dose: 100.0 mg/kg/injection, schedule: Q01DX009 (ip), vehicle: Klucel (hydroxypropylcellulose) (HPC)): 98 % of control

CC1(C)OCC(C2OC3OC(C)(C)OC3C2O)O1 (centres undefined)
T/C [1]: 105 % of control | T/C [4]: 100 % of control | T/C [10]: 97 % of control | T/C [2]: 103 % of control | T/C [5]: 95 % of control | T/C [11]: 96 % of control | T/C [3]: 103 % of control | T/C [6]: 103 % of control | T/C [12]: 100 % of control
